According to patent US20110160399A1, “HISTONE MODIFICATION INHIBITOR SPECIFIC TO TARGET GENE” (NIHON UNIVERSITY, priority 2008, published 2011):

Tests used:
[1] = system: SW480 (human large bowel cancer cell line); test: Cell proliferation assay (WST-8) on SW480 cells; format: cell-based; conditions: SW480, 72 hours, FIG. 4
Protocol: Next, the synthesized compounds were verified by WST-8 assay for their ability to suppress cancer cell proliferation.
Cell lines of HeLa (human uterine cervical cancer cell line), LOVO, RKO and SW480 (each of which was a human large bowel cancer cell line) were each cultured at 37° C. under 5% carbon dioxide conditions using Dulbecco's modified Eagle's medium (DMEM, Nacalai Tesque, Inc., Japan) supplemented with 10% fetal bovine serum (FBS: JRH bioscience, USA), antibiotics (50 U/ml penicillin and 50 μg/ml streptomycin) and 1 mM sodium pyruvate. […]
Each cell line seeded at 3×10^3 cells/well in a MICROTEST tissue culture plate (96 well, FALCON) was cultured at 37° C. under 5% carbon dioxide conditions for 24 hours, and then cultured in the presence of various concentrations of PI polyamide for an additional 72 hours. After completion of the culture, 10 μl of viable cell counting reagent SF (Nacalai Tesque, Inc., Japan) was added to each well and the absorbance at 450 nm was measured by ARVO EX (PerkinElmer). During the period from reagent addition until assay, incubation was continued at 37° C. in the presence of 5% CO2 until the absorbance reached about 1.2 to 2.0 in the control sample where only 50% DMSO was added to the cells.

[2] = system: acetylation of histone H3 lysine 9 in the genomic region of the LARP1 gene; test: Genomic region-specific acetylation analysis (ChIP, anti-histone H3K9 acetyl antibody), LARP1 gene region; format: cell-based, human; conditions: HeLa cells, 150 nM, 7 days; FIG. 10
Protocol: In a 10% fetal bovine serum-containing DMEM medium prepared to contain the synthesized compound (SAHA+p16 PIP or SAHA+non-targeting PIP) or SAHA at a final concentration of 150 nM, HeLa cells were cultured at 37° C. in the presence of 5% CO2 for 7 days. After culture, 5×10^6 to 1×10^7 confluent cells were harvested in 100 mm diameter cell culture dishes (Corning 430167) and then subjected to chromatin immunoprecipitation assay with a MILIPORE 17-295 Chromatin Immunoprecipitation (ChIP) assay kit.
The detailed procedures used are as follows. To the harvested cells cultured for 7 days, formalin was added at a final concentration of 1% and incubated at 37° C. for 10 minutes to fix the cells, whereby proteins and DNAs were crosslinked within the cells. Then, glycine was added at a final concentration of 0.25 M and the supernatant was removed, followed by washing the cell layer. Then, the cell layer was treated with 220 μl lysis buffer and the cell lysate was collected with a scraper. […] Real-time RT-PCR.” More specifically, the purified DNA was quantitatively analyzed with SYBR premix EX Taq (TAKARA BIO, Shiga, Japan) in a Thermal Cycler Dice Real-time System TP-800 (TAKARA BIO, Shiga, Japan). […]

SMILES: CN(C)CCCNC(=O)CCNC(=O)c1cc(NC(=O)c2nc(NC(=O)c3nc(NC(=O)CCNC(=O)c4cc(NC(=O)c5nc(NC(=O)CCCNC(=O)c6cc(NC(=O)c7nc(NC(=O)CCNC(=O)c8cc(NC(=O)c9cc(NC(=O)c%10nc(NC(=O)CCNC(=O)CCNC(=O)c%11ccc(NC(=O)CCCCCCC(=O)NO)cc%11)cn%10C)cn9C)cn8C)cn7C)cn6C)cn5C)cn4C)cn3C)cn2C)cn1C [SAHA+p16 PIP, SAHA-ββImPyPyβImPyγImPyβImImPyβDp]
- inhibition of SW480 cell proliferation [1]: inhibit proliferation
- acetylation of histone H3 lysine 9 in the genomic region of the LARP1 gene [2]: enhanced acetylation
- enhancement of histone H3 lysine 9 acetylation in the LARP1 genomic region compared to SAHA alone or SAHA+non-targeting PIP [2]: about 2.5 fold
